Laboratory results taken from the NIST ThermoML archive (doi:10.1021/je700287u).

Assay: xn = mol fraction of the nth substance listed
Settings: Liquid

CN(CCO)CCO [N-methyldiethanolamine] + O
Settings	mass density [kg/m3]
313.13 K, 16998 kPa, x1 = 0.1302	1039.5
313.13 K, 17013 kPa, x1 = 0.0893	1031.8
313.13 K, 17991 kPa, x1 = 0.1302	1039.8
313.13 K, 17993 kPa, x1 = 0.0893	1032.2
313.13 K, 18991 kPa, x1 = 0.0893	1032.6
313.13 K, 18996 kPa, x1 = 0.1302	1040.2
313.13 K, 19990 kPa, x1 = 0.1302	1040.5
313.13 K, 19991 kPa, x1 = 0.0893	1032.9
313.14 K, 999 kPa, x1 = 0.0607	1018.1
313.14 K, 2000 kPa, x1 = 0.0607	1018.5
313.14 K, 3028 kPa, x1 = 0.0607	1018.9
313.14 K, 4020 kPa, x1 = 0.0607	1019.3
313.14 K, 5011 kPa, x1 = 0.0607	1019.7
313.14 K, 6015 kPa, x1 = 0.0607	1020.1
313.14 K, 7003 kPa, x1 = 0.0607	1020.4
313.14 K, 8009 kPa, x1 = 0.0607	1020.8
313.14 K, 9014 kPa, x1 = 0.0607	1021.2
313.14 K, 10000 kPa, x1 = 0.0607	1021.5
313.14 K, 10977 kPa, x1 = 0.0607	1022
313.14 K, 12029 kPa, x1 = 0.0607	1022.3
313.14 K, 13022 kPa, x1 = 0.0607	1022.7
313.14 K, 13988 kPa, x1 = 0.0607	1023
313.14 K, 15009 kPa, x1 = 0.0607	1023.4
313.14 K, 16003 kPa, x1 = 0.0607	1023.8
313.14 K, 16995 kPa, x1 = 0.0607	1024.2
313.14 K, 18007 kPa, x1 = 0.0607	1024.6
313.14 K, 19000 kPa, x1 = 0.0607	1024.9
313.14 K, 19950 kPa, x1 = 0.0607	1025.3
323.08 K, 1011 kPa, x1 = 0.0607	1012.5
323.08 K, 2015 kPa, x1 = 0.0607	1012.9
323.08 K, 3015 kPa, x1 = 0.0607	1013.2
323.08 K, 4025 kPa, x1 = 0.0607	1013.7
323.08 K, 4995 kPa, x1 = 0.0607	1014
323.08 K, 6015 kPa, x1 = 0.0607	1014.4
323.08 K, 7015 kPa, x1 = 0.0607	1014.8
323.08 K, 7992 kPa, x1 = 0.0607	1015.2
323.08 K, 9006 kPa, x1 = 0.0607	1015.6
323.08 K, 10014 kPa, x1 = 0.0607	1016
323.08 K, 11000 kPa, x1 = 0.0607	1016.3
323.08 K, 12064 kPa, x1 = 0.0607	1016.8
323.08 K, 13004 kPa, x1 = 0.0607	1017.1
323.08 K, 13990 kPa, x1 = 0.0607	1017.5
323.08 K, 14997 kPa, x1 = 0.0607	1017.9
323.08 K, 15999 kPa, x1 = 0.0607	1018.2
323.08 K, 16993 kPa, x1 = 0.0607	1018.6
323.08 K, 18008 kPa, x1 = 0.0607	1019
323.08 K, 19017 kPa, x1 = 0.0607	1019.4
323.08 K, 19961 kPa, x1 = 0.0607	1019.7
323.09 K, 1017 kPa, x1 = 0.1302	1026.6
323.09 K, 1034 kPa, x1 = 0.0369	1001.1
323.09 K, 2001 kPa, x1 = 0.1302	1027
323.09 K, 2004 kPa, x1 = 0.0369	1001.5
323.09 K, 2993 kPa, x1 = 0.0369	1001.9
